These results are taken from PMC3130629 (Free radical biology & medicine, 2011).

Where only a bound is given, the exact number is not on record here.

The test system of series [1] is XO bound to BAEC GAGs (endothelial cell-bound XO). Briefly: Inhibition of endothelial cell-bound XO, extracellular O2•- by EPR with PPH. It counts as cell-based, bovine. Particulars: xanthine 100 μM, 37°C.
The next series concerns the target XO. The following applies: read-out: Ki for XO; pH 8.5; cited from earlier work.
For series [2] the following is noted: cited from earlier work.
Series [3] concerns XO bound to BAEC GAGs (endothelial cell-bound XO). The series can be described thus: Inhibition of endothelial cell-bound XO, uric acid formation. Format: cell-based, bovine. Particulars: for Inhibition of endothelial cell GAG-bound XO (uric acid formation): even at concentrations above those tolerated clinically (e.g. 200 μM).
A further series concerns xanthine oxidase (XO). The series can be described thus: O2•- formation from reaction of inhibitor with purified XO. It counts as biochemical. The following applies: XO 10 mU/ml; allopurinol 50 μM, febuxostat 100 nM; cytochrome c reduction.
The next series concerns the target GAG-bound XOR. The following applies: read-out: Ki, GAG-bound XOR; cited from earlier work.
The next series has as its target soluble XO. Particulars: read-out: Ki, soluble XO; cited from earlier work.
Series [4] addresses HS6B-XO (GAG-immobilized xanthine oxidase) (Bos taurus, UniProt P80457).
For series [5], the target named is xanthine oxidase (XO), free in solution (Bos taurus, UniProt P80457). Briefly: Inhibition of XO free in solution, uric acid formation. Particulars: soluble and HS6B-XO, 0.96 and […] vs ref 16. It counts as biochemical.
Sequence of xanthine oxidase (XO), free in solution (P80457 whole entry): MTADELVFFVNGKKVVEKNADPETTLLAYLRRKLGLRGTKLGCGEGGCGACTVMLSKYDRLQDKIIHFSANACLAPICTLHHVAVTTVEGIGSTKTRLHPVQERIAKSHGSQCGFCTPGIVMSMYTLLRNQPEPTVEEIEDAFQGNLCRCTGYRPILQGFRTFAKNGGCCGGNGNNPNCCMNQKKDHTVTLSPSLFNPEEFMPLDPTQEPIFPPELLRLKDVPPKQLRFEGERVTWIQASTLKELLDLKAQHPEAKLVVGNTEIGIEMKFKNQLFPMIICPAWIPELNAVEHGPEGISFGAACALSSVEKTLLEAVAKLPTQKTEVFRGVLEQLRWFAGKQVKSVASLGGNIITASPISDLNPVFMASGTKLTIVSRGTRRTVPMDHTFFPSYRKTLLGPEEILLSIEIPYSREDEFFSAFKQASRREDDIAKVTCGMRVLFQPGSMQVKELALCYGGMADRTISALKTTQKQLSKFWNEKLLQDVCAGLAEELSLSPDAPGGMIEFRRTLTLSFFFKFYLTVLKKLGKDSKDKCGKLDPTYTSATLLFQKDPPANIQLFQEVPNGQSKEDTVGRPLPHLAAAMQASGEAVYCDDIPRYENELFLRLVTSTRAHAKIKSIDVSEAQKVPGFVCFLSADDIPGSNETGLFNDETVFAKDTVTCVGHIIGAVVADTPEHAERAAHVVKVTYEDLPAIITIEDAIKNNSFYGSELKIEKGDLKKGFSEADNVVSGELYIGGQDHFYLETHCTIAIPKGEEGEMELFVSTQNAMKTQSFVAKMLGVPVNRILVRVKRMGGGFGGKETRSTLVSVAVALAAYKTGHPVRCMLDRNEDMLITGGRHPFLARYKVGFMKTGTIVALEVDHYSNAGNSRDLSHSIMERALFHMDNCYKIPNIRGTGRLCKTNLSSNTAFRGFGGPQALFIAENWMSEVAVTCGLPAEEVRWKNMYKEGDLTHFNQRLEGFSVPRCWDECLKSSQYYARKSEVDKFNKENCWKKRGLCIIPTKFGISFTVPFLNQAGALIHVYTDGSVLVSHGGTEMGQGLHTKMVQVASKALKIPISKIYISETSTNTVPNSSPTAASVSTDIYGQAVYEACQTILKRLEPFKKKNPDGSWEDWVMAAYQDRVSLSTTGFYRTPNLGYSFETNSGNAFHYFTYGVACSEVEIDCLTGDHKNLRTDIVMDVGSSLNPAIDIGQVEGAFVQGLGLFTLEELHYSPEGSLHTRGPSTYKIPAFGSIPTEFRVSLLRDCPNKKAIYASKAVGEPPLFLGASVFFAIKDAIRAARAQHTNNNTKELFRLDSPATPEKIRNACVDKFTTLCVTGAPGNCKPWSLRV

Sequence of HS6B-XO (GAG-immobilized xanthine oxidase) (P80457 whole entry): as above

Consider `Oc1ncnc2[nH]ncc12` [allopurinol], for which, in [1] (200 μM), the “Reduction of cell-bound O2•- radical formation (EPR, PP• radical)” value is on record as 80%. The inhibition constant (Ki) on XO was 700 nM. In series [2], the Concentrations seen clinically is 20 to 90 µM. Moreover, the “Inhibition of endothelial cell GAG-bound XO (uric acid formation)” value in series [3] was “no more than 80%”. In addition, the “O2•- formation on exposure of purified XO to the inhibitor” value in the series with xanthine oxidase (XO) is listed as “significant O2 ^•- formation”.

Turning to `O=c1[nH]c(=O)c2c[nH]nc2[nH]1` [oxypurinol], the Ki on GAG-bound XOR was 405 nM; at soluble XO, 230 nM. In addition, in [2], the Concentrations seen clinically was 20 to 90 µM. Moreover, the “Inhibition of endothelial cell GAG-bound XO (uric acid formation)” value in series [3] is listed as “no more than 80%”.

As to `Cc1nc(-c2ccc(OCC(C)C)c(C#N)c2)sc1C(=O)O` [febuxostat], the “Reduction of cell-bound O2•- production (EPR, PP• radical)” value in series [1] (50 nM) is recorded as 100%. Moreover, the Ki at XO was 0.12 nM. Besides, the “Concentration giving complete inhibition of uric acid and O2•- production from HS6B-XO” value in [4] is given as no more than 50 nM. In [5], the “Ki (pH 7.4) higher than previously reported Ki (pH 8.5)” value is recorded as ~ 8 fold. For the same compound, in [2] (reported), the Cmax is 15 µM. The “Inhibition of uric acid formation from endothelial cell-bound XO” value in series [3] (25 nM febuxostat, xanthine 100 μM, 1 h) is given as “completely inhibited”. Besides, the “O2•- formation on exposure of purified XO to the inhibitor” value in the series with xanthine oxidase (XO) is reported as “no detectable O2 ^•-”.
